In patent US20150148377A1, “Quinoline Derivatives” (NOVARTIS AG, priority 2011, published 2015):
pIC50: −log10 of the molar value.

system: CD86 on rat B cells; experiment: Rat B cell activation in whole blood (CD86 upregulation after anti-IgM and IL-4); assay type: cell-based; details: anti-IgM + rIL-4 stimulation, CD86 on CD45RA+ B cells, read-out: RWB/IC50 CD86
Procedure: PI3Kδ has been recognized to modulate B cell function when cells are stimulated through the B cell receptor (BCR) (Okkenhaug et al. Science 297:1031 (2002). For assessing the inhibitory property of compounds on B cell activation, the upregulation of activation markers CD86 on rat B cells derived from whole blood is measured after stimulation with anti-IgM and recombinant IL-4. The CD86 molecule (also known as B7-2) is primarily expressed on antigen-presenting cells, including B cells. Resting B cells express CD86 at low levels, but upregulate it following stimulation of e.g. the BCR or IL-4 receptor. CD86 on a B cell interacts with CD28 on T cells. This interaction is required for optimal T cell activation and for the generation of an optimal IgG1 response (Carreno et al. Annu Rev Immunol. 20:29 (2002)).
Whole blood was collected from the abdominal aorta adult male Lewis rats (LEW/HanHsd) oby using a 10 ml syringe with hypodermic needle pre-coated with sodium heparin. Blood was transferred into 50 ml Falcon tubes and the anticoagulant concentration was adjusted to 100 U/ml.
For assessment of the in vitro effects of immunosuppressive drugs, heparinized blood was prediluted to 50% with medium. As medium served DMEM high glucose (Animed cat#1-26F01-I) supplemented with 100 U/ml penicillin, […], 2 mM L-glutamin, 50 mg/ml dextran 40 and 5% fetal calf serum (FCS, Fetaclone I, Gibco #10270-106). Then, 190 μl prediluted blood was spiked with 10 μl of pre-diluted test compound in 96 well U-bottomed microtiter plates (Nunc) resulting in a 3-fold serial dilution with a concentration range from 20 to 0.0003 μM. Control wells were pretreated with DMSO to obtain a final concentration of 0.5% DMSO. Cultures were set up in duplicates, mixed well by agitation on a plate shaker (Heidolph Titramax 101; 30 sec, speed 900), pipetting up and down and agitated on the plate shaker again. Cultures were incubated at 37° C., 5% CO2 for 1 hr. Then, 20 μl of polyclonal goat anti-rat IgM Ab (Serotec, cat#302001) and 10 μl of diluted recombinant rIL-4 (Immunotools #340085) were added to obtain final concentrations of 30 μg/ml and 5 ng/ml, respectively. Plates were mixed by agitation on a plate shaker as above and incubated for 24 hrs at 37° C., 5% CO2.
After incubation, 15 μl of a 25 mM EDTA solution was added per well and shaken for 15 min to detach adherent cells. For analysis of surface activation markers, samples were then stained with PE-Cy5-labeled anti-ratCD45RA (BD cat#557015) to allow gating on B cells in FACS analysis. In addition, samples were stained with PE-labeled anti-rat CD86 (BD cat#551396). All staining procedures were performed at RT for 30 min in the dark. After incubation, samples were transferred to 96-deep well V-bottomed microtiter plates (Corning #396096) containing 2 ml/well of BD Lysing Solution (BD #349202). After lysis of erythrocytes samples were washed with 2 ml of CeIIWASH (BD #349524). Data was acquired on an LSRII or FACScalibur flow cytometer (BD Biosciences) using Cellquest Plus or DIVA (version 6.1.1) software, respectively. Lymphocytes were gated in the FSC/SSC dot blot according to size and granularity and further analyzed for expression of CD45RA and activation markers. Data were calculated from dot blots or histograms as percentage of cells positively stained for activation markers within the CD45RA+ population.
The percentage inhibition of B cell activation after exposure to drug was calculated by the following formula: […]
ORIGIN 7 software (Origin Lab Corporation, Northampton, Mass.) was used for non-linear regression curve fitting. The drug concentration resulting in 50% inhibition (IC50) was obtained by fitting the Hill equation to inhibition data.

**Q.** `Cc1cc(-c2ccnc3cc(F)c(O[C@H]4CCN(C(=O)C5CCOCC5)C4)cc23)cnc1S(C)(=O)=O` [Example C2, {(S)-3-[7-Fluoro-4-(6-methanesulfonyl-5-methyl-pyridin-3-yl)-quinolin-6-yloxy]-pyrrolidin-1-yl}-(tetrahydro-pyran-4-yl)-methanone] was tested. Which pIC50 did it give?
**A.** 7.34

**Q.** How did the pIC50 turn out when `COc1ncc(-c2ccnc3cc(F)c(O[C@H]4CCN(C(=O)C5CCS(=O)(=O)CC5)C4)cc23)cc1C` [Example C1, (1,1-Dioxo-hexahydro-1lambda*6*-thiopyran-4-yl)-{(S)-3-[7-fluoro-4-(6-methoxy-5-methyl-pyridin-3-yl)-quinolin-6-yloxy]-pyrrolidin-1-yl}-methanone] was run?
**A.** 7.06

**Q.** `COc1ncc(-c2ccnc3ccc(O[C@H]4CCN(C(=O)[C@@H]5CCN(C(C)=O)C5)C4)cc23)cc1C(F)F` [Example A24, 1-((R)-3-{(S)-3-[4-(5-Difluoromethyl-6-methoxy-pyridin-3-yl)-quinolin-6-yloxy]-pyrrolidine-1-carbonyl}-pyrrolidin-1-yl)-ethanone] was tested. Which pIC50 did it give?
**A.** 7.33

**Q.** `COc1ncc(-c2ccnc3ccc(O[C@H]4CCN(C(=O)C5CCS(=O)(=O)CC5)C4)c(C)c23)cc1C` [Example B3, (1,1-Dioxo-hexahydro-1lambda*6*-thiopyran-4-yl)-{(S)-3-[4-(6-methoxy-5-methyl-pyridin-3-yl)-5-methyl-quinolin-6-yloxy]-pyrrolidin-1-yl}-methanone] was tested. Which pIC50 did it give?
**A.** 6.97

**Q.** `COc1ncc(-c2ccnc3ccc(O[C@H]4CCN(C(=O)C5CCS(=O)(=O)CC5)C4)cc23)cc1Cl` [Example A1, {(S)-3-[4-(5-Chloro-6-methoxy-pyridin-3-yl)-quinolin-6-yloxy]-pyrrolidin-1-yl}-(1,1-dioxo-hexahydro-1lambda*6*-thiopyran-4-yl)-methanone] was tested. Which pIC50 did it give?
**A.** 7.14

**Q.** `COc1ncc(-c2ccnc3ccc(O[C@H]4CCN(C(=O)C5CCS(=O)(=O)CC5)C4)cc23)cc1C` [Example A15, (1,1-Dioxo-hexahydro-1lambda*6*-thiopyran-4-yl)-{(S)-3-[4-(6-methoxy-5-methyl-pyridin-3-yl)-quinolin-6-yloxy]-pyrrolidin-1-yl}-methanone] was tested. Which pIC50 did it give?
**A.** 7.00

**Q.** How did the pIC50 turn out when `COc1ncc(-c2ccnc3ccc(O[C@H]4CCN(C(=O)[C@@H]5CCN(C(C)=O)C5)C4)cc23)cc1C` [Example A10, 1-((R)-3-{(S)-3-[4-(6-Methoxy-5-methyl-pyridin-3-yl)-quinolin-6-yloxy]-pyrrolidine-1-carbonyl}-pyrrolidin-1-yl)-ethanone] was run?
**A.** 7.23

**Q.** How did the pIC50 turn out when `COc1ncc(-c2ccnc3ccc(O[C@H]4CCN(C(=O)C5CCS(=O)(=O)CC5)C4)cc23)cc1C(F)F` [Example A6, {(S)-3-[4-(5-Difluoromethyl-6-methoxy-pyridin-3-yl)-quinolin-6-yloxy]-pyrrolidin-1-yl}-(1,1-dioxo-hexahydro-1lambda*6*-thiopyran-4-yl)-methanone] was run?
**A.** 7.37

**Q.** How did the pIC50 turn out when `COc1ncc(-c2ccnc3ccc(O[C@H]4CCN(C(=O)[C@@H]5CCN(C(C)=O)C5)C4)c(C)c23)cc1C(F)F` [Example B1, 1-((R)-3-{(S)-3-[4-(5-Difluoromethyl-6-methoxy-pyridin-3-yl)-5-methylquinolin-6-yloxy]-pyrrolidine-1-carbonyl}-pyrrolidin-1-yl)-ethanone] was run?
**A.** 7.11

**Q.** With `CCC(=O)N1CC[C@H](Oc2ccc3nccc(-c4cnc(S(C)(=O)=O)c(C)c4)c3c2)C1` [Example A25, 1-{(S)-3-[4-(6-Methanesulfonyl-5-methyl-pyridin-3-yl)-quinolin-6-yloxy]-pyrrolidin-1-yl}-propan-1-one] as the compound, how does the pIC50 read?
**A.** 6.35
